According to US20240277740A1, “TREATMENT OF KNOWN AND UNKNOWN VIRAL INFECTION WITH LIPID AGENTS” (Viratides, LLC, priority 2020, published 2024):
In brackets after ≈: the same amount, converted by molar mass. Several values for one entry are separate records, joined by “and”; a condition that tells them apart may be missing. Equal values may be shown once. Read-outs that look alike come from different tables or passages of the source.

How the values were obtained:
[1] = test system: uninfected Vero E6 cells; conditions: for Viability of Uninfected Vero E6 Cells: 4-day treatment, mean ± s.d. of duplicates; for Viability of Uninfected Vero E6 Cells (A540): 4 days, raw duplicates
[2] = test system: SARS-CoV-2 (MEX-BC2/2020); test: Live SARS-CoV-2 CPE-based antiviral assay in Vero E6 cells (neutral red); type: cell-based

## C[S+](C)[O-] [DMSO, reference compound]
[1]; tested at 10%
  block of cell viability: more than 95%

## CCCCCCCC/C=C\CCCCCCCCCCCCCC(=O)N[C@@H](CO[C@@H]1O[C@H](CO)[C@H](O)[C@H](OS(=O)(=O)O)[C@H]1O)[C@H](O)/C=C/CCCCCCCCCCCCC [Sulfatide 24:1, C24:1 3′-sulfo Galactosylceramide (d18:1/24:1(15Z))]
[2]; 0.78 μg/mL, average ± s.d. of duplicates
  Inhibition of SARS-CoV-2 (MEX-BC2/2020) Virus-Induced CPE: −3.4 ± 0.6 % mock
[2]; 0.78 μg/mL, duplicates
  Raw OD - Absorbance (540 nm), infected cells: 0.121 and 0.118
[2]; 1.6 μg/mL, average ± s.d. of duplicates
  Inhibition of SARS-CoV-2 (MEX-BC2/2020) Virus-Induced CPE: −1.7 ± 4.1 % mock
[2]; 1.6 μg/mL, duplicates
  Raw OD - Absorbance (540 nm), infected cells: 0.137 and 0.115
[2]; 3.1 μg/mL, average ± s.d. of duplicates
  Inhibition of SARS-CoV-2 (MEX-BC2/2020) Virus-Induced CPE: −3.6 ± 1.1 % mock
[2]; 3.1 μg/mL, duplicates
  Raw OD - Absorbance (540 nm), infected cells: 0.122 and 0.116
[2]; 6.25 μg/mL, average ± s.d. of duplicates
  Inhibition of SARS-CoV-2 (MEX-BC2/2020) Virus-Induced CPE: −3.8 ± 1.1 % mock
[2]; 6.25 μg/mL, duplicates
  Raw OD - Absorbance (540 nm), infected cells: 0.115 and 0.121
[2]; 12.5 μg/mL, average ± s.d. of duplicates
  Inhibition of SARS-CoV-2 (MEX-BC2/2020) Virus-Induced CPE: 1.3 ± 3.9 % mock
[2]; 12.5 μg/mL, duplicates
  Raw OD - Absorbance (540 nm), infected cells: 0.127 and 0.18
[2]; 25 μg/mL, average ± s.d. of duplicates
  Inhibition of SARS-CoV-2 (MEX-BC2/2020) Virus-Induced CPE: 1.9 ± 2.2 % mock
[2]; 25 μg/mL, duplicates
  Raw OD - Absorbance (540 nm), infected cells: 0.134 and 0.146
[2]; 50 μg/mL, average ± s.d. of duplicates
  Inhibition of SARS-CoV-2 (MEX-BC2/2020) Virus-Induced CPE: 21.6 ± 13.0 % mock
[2]; 50 μg/mL, duplicates
  Raw OD - Absorbance (540 nm), infected cells: 0.180 and 0.250
[2]; 100 μg/mL, average ± s.d. of duplicates
  Inhibition of SARS-CoV-2 (MEX-BC2/2020) Virus-Induced CPE: 61.3 ± 8.5 % mock
[2]; 100 μg/mL, duplicates
  Raw OD - Absorbance (540 nm), infected cells: 0.390 and 0.344
[2]; Vero E6, 96 h, neutral red
  IC50 (antiviral): 84.9 µg/mL (≈ 95.4 µM)
[2]; at the two highest concentrations tested, 50 μg/mL and 100 μg/mL
  prevention of virus-induced CPE (in words): prevented the virus-induced cytopathic effect (CPE) in a dose-dependent manner
[1]
  CC50: >100 µg/mL
  cytotoxicity in viability assay (in words): dose-dependent trend of cytotoxicity
[1]; 0.78 μg/mL
  Viability of Uninfected Vero E6 Cells: 89.8 ± 5.8 % vehicle
  Viability of Uninfected Vero E6 Cells (A540): 0.457 and 0.424
[1]; 1.6 μg/mL
  Viability of Uninfected Vero E6 Cells: 99.3 ± 1.4 % vehicle
  Viability of Uninfected Vero E6 Cells (A540): 0.495 and 0.487
[1]; 3.1 μg/mL
  Viability of Uninfected Vero E6 Cells: 97.3 ± 1.4 % vehicle
  Viability of Uninfected Vero E6 Cells (A540): 0.487 and 0.479
[1]; 6.25 μg/mL
  Viability of Uninfected Vero E6 Cells: 95.7 ± 2.3 % vehicle
  Viability of Uninfected Vero E6 Cells (A540): 0.483 and 0.470
[1]; 12.5 μg/mL
  Viability of Uninfected Vero E6 Cells: 95.6 ± 3.5 % vehicle
  Viability of Uninfected Vero E6 Cells (A540): 0.486 and 0.466
[1]; 25 μg/mL
  Viability of Uninfected Vero E6 Cells: 85.8 ± 11.0 % vehicle
  Viability of Uninfected Vero E6 Cells (A540): 0.468 and 0.405
[1]; 50 μg/mL
  Viability of Uninfected Vero E6 Cells: 73.7 ± 13.1 % vehicle
  Viability of Uninfected Vero E6 Cells (A540): 0.425 and 0.350
[1]; 100 μg/mL
  Viability of Uninfected Vero E6 Cells: 63.8 ± 7.9 % vehicle
  Viability of Uninfected Vero E6 Cells (A540): 0.370 and 0.325

## N#C[C@@]1(c2ccc3c(N)ncnn23)O[C@H](CO)[C@@H](O)[C@H]1O [GS-441524, reference compound]
[2]; 0.03 μM, single data point
  Inhibition of SARS-CoV-2 (MEX-BC2/2020) Virus-Induced CPE: 0.09 % mock
[2]; 0.08 μM, single data point
  Inhibition of SARS-CoV-2 (MEX-BC2/2020) Virus-Induced CPE: 1.1 % mock
[2]; 0.25 μM, single data point
  Inhibition of SARS-CoV-2 (MEX-BC2/2020) Virus-Induced CPE: 16.1 % mock
  Raw OD - Absorbance (540 nm), infected cells: 0.194
[2]; 0.74 μM, single data point
  Inhibition of SARS-CoV-2 (MEX-BC2/2020) Virus-Induced CPE: 134.9 % mock
  Raw OD - Absorbance (540 nm), infected cells: 0.648
[2]; 1 μM
  Inhibition of SARS-CoV-2 (MEX-BC2/2020) Virus-Induced CPE: 110.2 % mock
  Raw OD - Absorbance (540 nm), infected cells: 0.554 and 0.553
[2]; 6.7 μM, single data point
  Inhibition of SARS-CoV-2 (MEX-BC2/2020) Virus-Induced CPE: 116.6 % mock
  Raw OD - Absorbance (540 nm), infected cells: 0.578
[2]; 10 μM
  Inhibition of SARS-CoV-2 (MEX-BC2/2020) Virus-Induced CPE: 100.0 % mock
  Raw OD - Absorbance (540 nm), infected cells: 0.507 and 0.522
[2]; Severe acute respiratory syndrome coronavirus 2, Vero C1008, Vero E6, 96 h, estimated by GraphPad Prism, R2 = 0.977
  IC50: ~280 nM
[2]; Vero E6
  concentrations at which virus-induced CPE was completely prevented: ≥ 0.74 µM
[2]; quality control of infectivity assay
  prevention of virus-induced CPE by control inhibitor (in words): prevented completely the virus-induced CPE
